pIC50: −log10 of the molar value. Activity calls are given as the source filed them. The rule behind the calls is not given here.
What was measured:
ECa-109 cell line [1] = test: Antiproliferative activity against human EC109 cells after 72 hrs by MTT assay; type: functional, cell-based; details: ECa-109, 72 h
ECa-109 cell line [2] = test: Induction of apoptosis in human EC109 cells assessed as late apoptotic cells at 8 uM after 48 hrs in presence of caspase inhibitor Z-VAD-FMK by Annexin V-FITC/propidium iodide staining based flow cytometry (reference value: 0.01%); type: functional
ECa-109 cell line [3] = test: Induction of morphological changes in human EC109 cells assessed as apoptotic body formation after 48 hrs by Hoechst 33342 staining based fluorescence microscopic method; type: functional, cell-based
EC9706 [4] = test: Induction of apoptosis in human EC9706 cells assessed as late apoptotic cells at 2 uM after 48 hrs by Annexin V-FITC/propidium iodide staining based flow cytometry (reference value: 1.29 to 1.99%); type: functional
ECa-109 cell line [5] = test: Induction of apoptosis in human EC109 cells at 2 to 4 uM after 48 hrs in presence of anti-oxidant NAC by Annexin V-FITC/propidium iodide staining based flow cytometry; type: functional, cell-based
EC9706 [6] = test: Induction of apoptosis in human EC9706 cells assessed as necrotic cells at 8 uM after 48 hrs by Annexin V-FITC/propidium iodide staining based flow cytometry (reference value: 1.1 to 1.31%); type: functional
ECa-109 cell line [7] = test: Induction of apoptosis in human EC109 cells assessed as late apoptotic cells at 4 uM after 48 hrs in presence of caspase inhibitor Z-VAD-FMK by Annexin V-FITC/propidium iodide staining based flow cytometry (reference value: 0.01%); type: functional
EC9706 [8] = test: Upregulation of p27 protein expression in human EC9706 cells at 2 uM after 24 to 48 hrs by Western blot analysis relative to control; type: functional
ECa-109 cell line [9] = test: Induction of apoptosis in human EC109 cells assessed as necrotic cells at 4 uM after 48 hrs in presence of caspase inhibitor Z-VAD-FMK by Annexin V-FITC/propidium iodide staining based flow cytometry (reference value: 2.37%); type: functional
ECa-109 cell line [10] = test: Induction of ROS generation in human EC109 cells at 4 uM after 24 hrs by DCFH-DA staining based flow cytometry relative to control; type: functional
EC9706 [11] = test: Induction of morphological changes in human EC9706 cells assessed as cell rounding after 48 hrs by Hoechst 33342 staining based fluorescence microscopic method; type: functional
ECa-109 cell line [12] = test: Cell cycle arrest in human EC109 cells assessed as accumulation at G0/G1 phase after 24 hrs by propidium iodide staining based flow cytometry; type: functional
EC9706 [13] = test: Anticlonogenic activity against human EC9706 cells after 7 days by crystal violet staining based assay; type: functional, cell-based
EC9706 [14] = test: Induction of apoptosis in human EC9706 cells assessed as increase in tBid protein expression at 2 to 8 uM after 48 hrs by Western blot analysis; type: functional, cell-based
ECa-109 cell line [15] = test: Induction of apoptosis in human EC109 cells assessed as necrotic cells at 2 uM after 48 hrs by Annexin V-FITC/propidium iodide staining based flow cytometry (reference value: 0.74 to 1.18%); type: functional
EC9706 [16] = test: Induction of apoptosis in human EC9706 cells assessed as decrease in Bcl2 protein expression after 48 hrs by Western blot analysis; type: functional, cell-based
GES1 [17] = test: Antiproliferative activity against human GES-1 cells after 24 hrs by MTT assay; type: cell-based; details: GES1, 24 h
ECa-109 cell line [18] = test: Antiproliferative activity against human EC109 cells after 24 hrs by MTT assay; type: functional, cell-based; details: ECa-109, 24 h
EC9706 [19] = test: Induction of apoptosis in human EC9706 cells assessed as live cells at 8 uM after 48 hrs by Annexin V-FITC/propidium iodide staining based flow cytometry (reference value: 85.5 to 96%); type: functional
EC9706 [20] = test: Induction of apoptosis in human EC9706 cells assessed as late apoptotic cells at 4 uM after 48 hrs by Annexin V-FITC/propidium iodide staining based flow cytometry (reference value: 1.29 to 1.99%); type: functional
ECa-109 cell line [21] = test: Induction of apoptosis in human EC109 cells assessed as increase in cleaved caspase-8 protein expression after 48 hrs by Western blot analysis; type: functional, cell-based
EC9706 [22] = test: Induction of morphological changes in human EC9706 cells assessed as apoptotic body formation after 48 hrs by Hoechst 33342 staining based fluorescence microscopic method; type: functional, cell-based
ECa-109 cell line [23] = test: Induction of apoptosis in human EC109 cells assessed as early apoptotic cells at 8 uM after 48 hrs in presence of caspase inhibitor Z-VAD-FMK by Annexin V-FITC/propidium iodide staining based flow cytometry (reference value: 0.52%); type: functional
EC9706 [24] = test: Induction of apoptosis in human EC9706 cells assessed as late apoptotic cells at 8 uM after 48 hrs in presence of caspase inhibitor Z-VAD-FMK by Annexin V-FITC/propidium iodide staining based flow cytometry (reference value: 1.27%); type: functional
EC9706 [25] = test: Cell cycle arrest in human EC9706 cells assessed as increase in G0/G1 phase population at 4 uM after 24 hrs by propidium iodide staining based flow cytometry relative to control; type: functional
Mus musculus [26] = test: Acute toxicity in C57BL/6 mouse assessed as histopathological changes in heart at 2 g/kg, ig measured for 2 weeks by hematoxylin and eosin staining based microscopic method; type: organism-based; details: in vivo, po, 2000 mg/kg, 336 h
ECa-109 cell line [27] = test: Effect on Prxs-3 protein expression in human EC109 cells at 2 to 8 uM after 48 hrs by Western blot analysis; type: functional, cell-based
EC9706 [28] = test: Cell cycle arrest in human EC9706 cells assessed as increase in G0/G1 phase population at 2 uM after 24 hrs by propidium iodide staining based flow cytometry relative to control; type: functional
EC9706 [29] = test: Cell cycle arrest in human EC9706 cells assessed as decrease in G2/M phase population at 4 uM after 24 hrs by propidium iodide staining based flow cytometry relative to control; type: functional
ECa-109 cell line [30] = test: Induction of apoptosis in human EC109 cells assessed as early apoptotic cells at 8 uM after 48 hrs by Annexin V-FITC/propidium iodide staining based flow cytometry (reference value: 0.43 to 1.15%); type: functional
Mus musculus [31] = test: Acute toxicity in C57BL/6 mouse assessed as histopathological changes in lung at 2 g/kg, ig measured for 2 weeks by hematoxylin and eosin staining based microscopic method; type: organism-based; details: in vivo, po, 2000 mg/kg, 336 h
EC9706 [32] = test: Effect on Prxs-2 protein expression in human EC9706 cells at 2 to 8 uM after 48 hrs by Western blot analysis; type: functional, cell-based
GES1 [33] = test: Antiproliferative activity against human GES-1 cells after 48 hrs by MTT assay; type: cell-based; details: GES1, 48 h
ECa-109 cell line [34] = test: Induction of apoptosis in human EC109 cells assessed as increase in tBid protein expression at 2 to 8 uM after 48 hrs by Western blot analysis; type: functional, cell-based
[35] = Selectivity index, ratio of IC50 for antiproliferative activity against human GES-1 cells after 72 hrs to IC50 for antiproliferative activity against human MGC803 cells after 72 hrs; type: toxicity, cell-based; details: GES-1 cells versus MGC803 cells, read-out: Ratio IC50
EC9706 [36] = test: Induction of apoptosis in human EC9706 cells assessed as early apoptotic cells at 4 uM after 48 hrs in presence of caspase inhibitor Z-VAD-FMK by Annexin V-FITC/propidium iodide staining based flow cytometry (reference value: 0.33%); type: functional
ECa-109 cell line [37] = test: Anticlonogenic activity against human EC109 cells after 7 days by crystal violet staining based assay; type: functional, cell-based

With `COc1ccc(/C=N/NC(=O)c2cccc(S(=O)(=O)N3CCOCC3)c2)c(O)c1` the pIC50 (ECa-109 cell line [1]) was 5.55, the Activity (ECa-109 cell line [2]) was 21.2% and the Activity (ECa-109 cell line [3]) was “Dose-dependent effect”. The Activity (EC9706 [4]) was 6.25%, the Activity (ECa-109 cell line [5]) was “inactive” and the Activity (EC9706 [6]) was 10.1 - 10.2%. The Activity (ECa-109 cell line [7]) was 21.1%, the “fold change (FC)” value (EC9706 [8]) was 1.3 and the Activity (ECa-109 cell line [9]) was 20.4%. For the same molecule, the “fold change (FC)” value (ECa-109 cell line [10]) was 2.05, the Activity (EC9706 [11]) was “Dose-dependent effect” and the Activity (ECa-109 cell line [12]) was “Dose-dependent effect”. For the same molecule, the Activity (EC9706 [13]) was “Active”, the Activity (EC9706 [14]) was “Active” and the Activity (ECa-109 cell line [15]) was 2.64%. For the same molecule, the Activity (EC9706 [16]) was “Dose-dependent effect”, the pIC50 (GES1 [17]) was under 4.10 and the pIC50 (ECa-109 cell line [18]) was under 4.70. The Activity (EC9706 [19]) was 29.9 - 61.1%, the Activity (EC9706 [20]) was 18.2 - 21.6% and the Activity (ECa-109 cell line [21]) was “Dose-dependent effect”. The Activity (EC9706 [22]) was “Dose-dependent effect”, the Activity (ECa-109 cell line [23]) was 14.1% and the Activity (EC9706 [24]) was 25%. For the same molecule, the “fold change (FC)” value (EC9706 [25]) was 1.22, the Activity (Mus musculus [26]) was “Non-Toxic” and the Activity (ECa-109 cell line [27]) was “Active”. For the same molecule, the “fold change (FC)” value (EC9706 [28]) was 1.07, the “fold change (FC)” value (EC9706 [29]) was 0.3 and the Activity (ECa-109 cell line [30]) was 18.7 - 25%. For the same molecule, the Activity (Mus musculus [31]) was “Non-Toxic”, the Activity (EC9706 [32]) was “Active” and the pIC50 (GES1 [33]) was under 4.10. The Activity (ECa-109 cell line [34]) was “Active”, the selectivity ratio at 72 h [35] was 7.2 and the Activity (EC9706 [36]) was 13.3%. The Activity (ECa-109 cell line [37]) was “Active”.
